Experiment [1] has as its target T1, hCGRP receptor (CALCRL:RAMP1) (Homo sapiens, UniProt O60894+Q16602).
T1 construct: host or cells: GeneBLAzer CALCRL:RAMP1-CRE-bla Freestyle 293F
Description: CGRP receptor antagonist activity measured by cAMP assay (HTRF). The format is cell-based. The conditions noted are these: agonist human α-CGRP; for Emax: % MPE: percent of the maximal possible effect, read-out: hCGRP-R Efficacy Antag (%) Ave; for IC50: GeneBLAzer CALCRL:RAMP1-CRE-bla Freestyle 293F cells, 30 minutes, read-out: hCGRP-R IC50 Ave.

Experiment [2] addresses T2, hAM2 receptor (CALCRL:RAMP3) (Homo sapiens, UniProt O60896+Q16602).
T2 construct: expressed in transfected cells; host or cells: GeneBLAzer CALCRL:RAMP3-CRE-bla Freestyle 293F
The experiment can be described thus: AM2 receptor antagonist activity measured by cAMP assay (HTRF). The format is cell-based. As to conditions: for Emax: % MPE: percent of the maximal possible effect, read-out: hAM2-R Efficacy Antag (%) Ave; for Emax / IC50: agonist human adrenomedullin; for IC50: GeneBLAzer CALCRL:RAMP3-CRE-bla Freestyle 293F cells, read-out: hAM2-R IC50 Ave; for selectivity ratio CGRP/AM2: selectivity ratio for hCGRP over hAM2, calculated from the IC50 values.

As a reminder, the IC50 is the point on the concentration scale where inhibition reaches its midpoint.

Numbered stars: 1 amine (or outer) side, 2 acyl side, 3 side chain; on linkers, the order of the positions; unused ones are H or OH. Bridge positions count the residues as written; N and C are the ends. Square brackets hold non-standard residues; d marks the D form. Peptide text beside a SMILES is read from it. * marks the point of attachment. Phe(3-CONH2) = NC(=O)c1cccc(C[C@H](N)C(=O)O)c1; Phe(2-CONH2) = NC(=O)c1ccccc1C[C@H](N)C(=O)O; X5 = O=C([C@H](Cc1ccc(CO)cc1)N[*:1])[*:2]; Picolinoyl(3,5-F2) = O=C(c1ncc(F)cc1F)*; Picolinoyl(5-F) = O=C(c1ccc(F)cn1)*; Orn(iPr) = CC(C)NCCC[C@H](N)C(=O)O; Oxazole2carbonyl = O=C(c1ncco1)*; 3Pal = N[C@@H](Cc1cccnc1)C(=O)O; Picolinoyl = O=C(c1ccccn1)*; ΔPro = O=C(O)[C@@H]1C=CCN1

T1 sequence (Q16602 23-461): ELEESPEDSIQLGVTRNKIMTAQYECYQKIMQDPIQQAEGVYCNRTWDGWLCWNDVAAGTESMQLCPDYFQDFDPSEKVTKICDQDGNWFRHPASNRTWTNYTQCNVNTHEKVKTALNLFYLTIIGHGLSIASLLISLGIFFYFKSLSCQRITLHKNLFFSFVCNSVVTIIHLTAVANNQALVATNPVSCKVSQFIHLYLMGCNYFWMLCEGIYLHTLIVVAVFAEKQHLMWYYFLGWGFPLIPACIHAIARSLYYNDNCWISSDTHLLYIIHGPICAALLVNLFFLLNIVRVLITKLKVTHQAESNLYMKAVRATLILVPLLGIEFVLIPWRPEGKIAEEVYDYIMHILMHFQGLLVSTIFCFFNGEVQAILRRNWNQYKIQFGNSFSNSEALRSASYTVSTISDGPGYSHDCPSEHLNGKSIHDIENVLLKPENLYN
T1 sequence (O60894 27-148): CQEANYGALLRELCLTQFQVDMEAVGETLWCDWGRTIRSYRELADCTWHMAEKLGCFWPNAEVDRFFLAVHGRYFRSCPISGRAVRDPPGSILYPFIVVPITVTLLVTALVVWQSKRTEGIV
T2 sequence (Q16602 23-461): as the sequence (Q16602 23-461) above
T2 sequence (O60896 24-148): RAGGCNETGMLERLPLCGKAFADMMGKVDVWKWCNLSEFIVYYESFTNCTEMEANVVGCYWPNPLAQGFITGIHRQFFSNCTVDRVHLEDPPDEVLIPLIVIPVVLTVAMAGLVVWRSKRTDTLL

On to `CC(C)NCCC[C@@H]1NC(=O)[C@@H](NC(=O)[C@H](Cc2ccc(O)cc2)NC(=O)[C@H](NC(=O)c2ccc(F)cn2)C(C)C)CSSC[C@@H](C(=O)N[C@@H](Cc2cccnc2)C(N)=O)NC(=O)[C@H](Cc2ccc(CO)cc2)NC(=O)[C@@H]2CCCN2C(=O)CNC(=O)[C@H](C(C)C)NC(=O)[C@H](CC(=O)O)NC1=O` [Compound 61, Picolinoyl(5-F)-D-Val-Tyr-c(Cys-Orn(iPr)-Asp-Val-Gly-Pro-Phe(4-CH2OH)-Cys)-3Pal-NH2] ({Picolinoyl(5-F)}-[dV]YC[Orn(iPr)]DVGP[X5]C[3Pal]-NH2; disulfide 3-10), for which, in experiment [1], the Emax was 100% and the concentration for half-maximal inhibition (IC50) is 0.1 nM. Also, in experiment [2], the Emax is 100%, the 50% inhibitory concentration (IC50) was 89 nM and the “selectivity ratio CGRP/AM2” value is recorded as 934.
As for `CC(C)NCCC[C@@H]1NC(=O)[C@@H](NC(=O)[C@H](Cc2ccc(O)cc2)NC(=O)[C@H](NC(=O)c2ncc(F)cc2F)C(C)C)CSSC[C@@H](C(=O)N[C@@H](Cc2cccnc2)C(N)=O)NC(=O)[C@H](Cc2ccccc2)NC(=O)[C@@H]2CCCN2C(=O)CNC(=O)[C@H](C(C)C)NC(=O)[C@H](CC(=O)O)NC1=O` [Compound 62, Picolinoyl(3,5-F2)-D-Val-Tyr-c(Cys-Orn(iPr)-Asp-Val-Gly-Pro-Phe-Cys)-3Pal-NH2] ({Picolinoyl(3,5-F2)}-[dV]YC[Orn(iPr)]DVGPFC[3Pal]-NH2; disulfide 3-10), in experiment [1], the Emax was 100% and the IC50 is 0.14 nM. Also, in experiment [2], the Emax was 100%, the IC50 was 85 nM and the “selectivity ratio CGRP/AM2” value is listed as 592.
On to `CC(C)NCCC[C@@H]1NC(=O)[C@@H](NC(=O)[C@H](Cc2ccccc2C(N)=O)NC(=O)[C@H](NC(=O)c2ccc(F)cn2)C(C)C)CSSC[C@@H](C(=O)N[C@@H](Cc2cccnc2)C(N)=O)NC(=O)[C@H](Cc2ccc(CO)cc2)NC(=O)[C@@H]2C=CCN2C(=O)CNC(=O)[C@H](C(C)C)NC(=O)[C@H](CC(=O)O)NC1=O` [Compound 63, Picolinoyl(5-F)-D-Val-Phe(2-Cbm)-c(Cys-Orn(iPr)-Asp-Val-Gly-Dhp-Phe(4-CH2OH)-Cys)-3Pal-NH2] ({Picolinoyl(5-F)}-[dV][Phe(2-CONH2)]C[Orn(iPr)]DVG[ΔPro][X5]C[3Pal]-NH2; disulfide 3-10), for which, in experiment [1], the Emax was 101% and the IC50 is 0.1 nM. Moreover, in experiment [2], the Emax is 98%, the IC50 is 85 nM and the “selectivity ratio CGRP/AM2” value is on record as 848.
`CC(C)NCCC[C@@H]1NC(=O)[C@@H](NC(=O)[C@H](Cc2ccccc2C(N)=O)NC(=O)[C@H](NC(=O)c2ncco2)C(C)C)CSSC[C@@H](C(=O)N[C@@H](Cc2cccnc2)C(N)=O)NC(=O)[C@H](Cc2ccc(CO)cc2)NC(=O)[C@@H]2CCCN2C(=O)CNC(=O)[C@H](C(C)C)NC(=O)[C@H](CC(=O)O)NC1=O` [Compound 64, Oxazole-2-carbonyl-D-Val-Phe(2-Cbm)-c(Cys-Orn(iPr)-Asp-Val-Gly-Pro-Phe(4-CH2OH)-Cys)-3Pal-NH2] (Oxazole2carbonyl-[dV][Phe(2-CONH2)]C[Orn(iPr)]DVGP[X5]C[3Pal]-NH2; disulfide 3-10): in experiment [1], the Emax was 101% and the IC50 is 0.12 nM. In experiment [2], the Emax is 99%, the IC50 is 1250 nM and the “selectivity ratio CGRP/AM2” value was 10594.
Taken in the same sequence, the figures for `CC(C)NCCC[C@@H]1NC(=O)[C@@H](NC(=O)[C@H](Cc2ccccc2C(N)=O)NC(=O)[C@H](NC(=O)c2ncco2)C(C)C)CSSC[C@@H](C(=O)N[C@@H](Cc2cccnc2)C(N)=O)NC(=O)[C@H](Cc2cccc(C(N)=O)c2)NC(=O)[C@@H]2C=CCN2C(=O)CNC(=O)[C@H](C(C)C)NC(=O)[C@H](CC(=O)O)NC1=O` [Compound 65, Oxazole-2-carbonyl-D-Val-Phe(2-Cbm)-c(Cys-Orn(iPr)-Asp-Val-Gly-Dhp-Phe(3-Cbm)-Cys)-3Pal-NH2] (Oxazole2carbonyl-[dV][Phe(2-CONH2)]C[Orn(iPr)]DVG[ΔPro][Phe(3-CONH2)]C[3Pal]-NH2; disulfide 3-10) were 101%, 0.06 nM, 100%, 318 nM and 5492.
Taken in the same sequence, the figures for `CC(C)NCCC[C@@H]1NC(=O)[C@@H](NC(=O)[C@H](Cc2ccccc2C(N)=O)NC(=O)[C@H](NC(=O)c2ccc(F)cn2)C(C)C)CSSC[C@@H](C(=O)N[C@@H](Cc2cccnc2)C(N)=O)NC(=O)[C@H](Cc2ccccc2C(N)=O)NC(=O)[C@@H]2C=CCN2C(=O)CNC(=O)[C@H](C(C)C)NC(=O)[C@H](CC(=O)O)NC1=O` [Compound 66, Picolinoyl(5-F)-D-Val-Phe(2-Cbm)-c(Cys-Orn(iPr)-Asp-Val-Gly-Dhp-Phe(2-Cbm)-Cys)-3Pal-NH2] ({Picolinoyl(5-F)}-[dV][Phe(2-CONH2)]C[Orn(iPr)]DVG[ΔPro][Phe(2-CONH2)]C[3Pal]-NH2; disulfide 3-10) were 101%, 0.08 nM, 100%, 84 nM and 1027.
Taken in the same sequence, the figures for `CC(C)NCCC[C@@H]1NC(=O)[C@@H](NC(=O)[C@H](Cc2ccc(O)cc2)NC(=O)[C@H](NC(=O)c2ncco2)C(C)C)CSSC[C@@H](C(=O)N[C@@H](Cc2cccnc2)C(N)=O)NC(=O)[C@H](Cc2cccc(C(N)=O)c2)NC(=O)[C@@H]2C=CCN2C(=O)CNC(=O)[C@H](C(C)C)NC(=O)[C@H](CC(=O)O)NC1=O` [Compound 67, Oxazole-2-carbonyl-D-Val-Tyr-c(Cys-Orn(iPr)-Asp-Val-Gly-Dhp-Phe(3-Cbm)-Cys)-3Pal-NH2] (Oxazole2carbonyl-[dV]YC[Orn(iPr)]DVG[ΔPro][Phe(3-CONH2)]C[3Pal]-NH2; disulfide 3-10) were 101%, 0.09 nM, 99%, 103 nM and 1094.
For `CC(C)NCCC[C@@H]1NC(=O)[C@@H](NC(=O)[C@H](Cc2ccc(O)cc2)NC(=O)[C@H](NC(=O)c2ccc(F)cn2)C(C)C)CSSC[C@@H](C(=O)N[C@@H](Cc2cccnc2)C(N)=O)NC(=O)[C@H](Cc2cccc(C(N)=O)c2)NC(=O)[C@@H]2C=CCN2C(=O)CNC(=O)[C@H](C(C)C)NC(=O)[C@H](CC(=O)O)NC1=O` [Compound 68, Picolinoyl(5-F)-D-Val-Tyr-c(Cys-Orn(iPr)-Asp-Val-Gly-Dhp-Phe(3-Cbm)-Cys)-3Pal-NH2] ({Picolinoyl(5-F)}-[dV]YC[Orn(iPr)]DVG[ΔPro][Phe(3-CONH2)]C[3Pal]-NH2; disulfide 3-10), in experiment [1], the Emax was 101% and the IC50 was 0.06 nM. Further, in experiment [2], the Emax was 100%, the IC50 is 18 nM and the “selectivity ratio CGRP/AM2” value is on record as 300.
Turning to `CC(C)NCCC[C@@H]1NC(=O)[C@@H](NC(=O)[C@H](Cc2ccc(O)cc2)NC(=O)[C@H](NC(=O)c2ccccn2)C(C)C)CSSC[C@@H](C(=O)N[C@@H](Cc2cccnc2)C(N)=O)NC(=O)[C@H](Cc2ccc(CO)cc2)NC(=O)[C@@H]2C=CCN2C(=O)CNC(=O)[C@H](C(C)C)NC(=O)[C@H](CC(=O)O)NC1=O` [Compound 69, Picolinoyl-D-Val-Tyr-c(Cys-Orn(iPr)-Asp-Val-Gly-Dhp-Phe(4-CH2OH)-Cys)-3Pal-NH2] (Picolinoyl-[dV]YC[Orn(iPr)]DVG[ΔPro][X5]C[3Pal]-NH2; disulfide 3-10), in experiment [1], the Emax was 100% and the half-maximal inhibitory concentration (IC50) was 0.13 nM. Besides, in experiment [2], the Emax is 100%, the 50% inhibitory concentration (IC50) is 64 nM and the “selectivity ratio CGRP/AM2” value was 497.

The values are drawn from patent US9969775B2, “CGRP antagonist peptides” (Ferring B.V., priority 2015, dated 2018).
